In ChEMBL document CHEMBL4680295, “Structure guided development of potent piperazine-derived hydroxamic acid inhibitors targeting falcilysin” (Bioorg Med Chem Lett, 2021) one finds Ki and EC50 data, which are given here for 27 compounds.

A value given as a limit tells only on which side of the number the result lay.

The target of assay [1] is T1, Falcilysin (Plasmodium falciparum (isolate 3D7), UniProt Q76NL8).
T1 sequence (Q76NL8 whole entry): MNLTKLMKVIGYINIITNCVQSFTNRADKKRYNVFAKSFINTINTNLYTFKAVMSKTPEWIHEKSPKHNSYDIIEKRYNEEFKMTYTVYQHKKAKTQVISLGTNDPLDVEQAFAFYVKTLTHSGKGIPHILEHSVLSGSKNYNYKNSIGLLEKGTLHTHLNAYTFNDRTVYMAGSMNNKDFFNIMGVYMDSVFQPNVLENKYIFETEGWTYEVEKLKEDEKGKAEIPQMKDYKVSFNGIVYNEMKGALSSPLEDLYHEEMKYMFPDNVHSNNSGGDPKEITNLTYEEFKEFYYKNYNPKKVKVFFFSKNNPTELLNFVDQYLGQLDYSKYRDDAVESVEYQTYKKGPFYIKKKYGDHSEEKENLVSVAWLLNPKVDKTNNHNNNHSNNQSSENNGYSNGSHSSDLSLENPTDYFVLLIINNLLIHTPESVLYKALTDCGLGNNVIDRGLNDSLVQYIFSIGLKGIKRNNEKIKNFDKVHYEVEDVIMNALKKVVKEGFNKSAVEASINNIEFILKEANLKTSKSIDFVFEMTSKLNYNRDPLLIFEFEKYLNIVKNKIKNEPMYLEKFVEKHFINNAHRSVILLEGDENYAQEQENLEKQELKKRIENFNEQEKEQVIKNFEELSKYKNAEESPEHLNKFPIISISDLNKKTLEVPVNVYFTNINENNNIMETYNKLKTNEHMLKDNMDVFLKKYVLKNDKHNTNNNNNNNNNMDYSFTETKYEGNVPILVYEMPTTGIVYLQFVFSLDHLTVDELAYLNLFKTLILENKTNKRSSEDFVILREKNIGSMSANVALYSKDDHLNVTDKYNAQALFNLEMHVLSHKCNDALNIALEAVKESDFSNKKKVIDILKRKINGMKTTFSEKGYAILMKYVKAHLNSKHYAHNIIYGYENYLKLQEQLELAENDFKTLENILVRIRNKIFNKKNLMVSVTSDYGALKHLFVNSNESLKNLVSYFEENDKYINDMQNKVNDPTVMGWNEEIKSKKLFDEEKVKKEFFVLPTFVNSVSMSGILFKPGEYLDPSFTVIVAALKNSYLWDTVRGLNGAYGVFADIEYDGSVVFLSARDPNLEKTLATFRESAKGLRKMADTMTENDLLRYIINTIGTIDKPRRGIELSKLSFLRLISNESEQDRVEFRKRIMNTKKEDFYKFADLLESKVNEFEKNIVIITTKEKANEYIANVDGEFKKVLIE
As to the kind of experiment: Inhibition of Plasmodium falciparum FLN.

For assay [2], the system named is Plasmodium falciparum. Put plainly: Parasiticidal activity against Plasmodium falciparum 3D7. The assay is classed as functional, organism-based.

Consider `O=C(NO)C1CN(C(=O)c2ccc(-c3ccccc3)cc2)CCN1S(=O)(=O)c1ccc(Br)cc1` (centres undefined), for which the affinity in assay [1] corresponds to a Ki of 3 µM. The compound further came in with an EC50 in assay [2] of 2.6 µM.
In assay [1], `CNC(=O)C1CN(S(=O)(=O)c2ccc(-c3ccccc3)cc2)CCN1S(=O)(=O)c1cccc(CCc2ccccc2)c1` (centres undefined) yielded a Ki of 2.5 µM. Besides, the EC50 in assay [2] was determined as 2.1 µM.
Compound `COC(=O)C1CN(S(=O)(=O)c2ccc(-c3ccccc3)cc2)CCN1S(=O)(=O)c1ccc(/C=C/c2ccccc2)cc1` (centres undefined) gave a Ki in assay [1] of 0.6 µM. The same compound displayed an EC50 in assay [2] of 0.8 µM.
For `C#Cc1ccc(S(=O)(=O)N2CCN(C(=O)c3ccc(I)cc3)CC2C(=O)NO)cc1` (centres undefined), in that order: above 25 µM and above 25 µM.
The compound `O=C(NO)C1CN(C(=O)c2cccc3ccccc23)CCN1S(=O)(=O)c1ccc(Br)cc1` (centres undefined) displayed a Ki in assay [1] of 9 µM. Further, the EC50 in assay [2] was 4 µM.
In assay [1], `O=C(NO)C1CN(Cc2ccc(-c3ccccc3)cc2)CCN1S(=O)(=O)c1ccc(I)cc1` (centres undefined) displayed a Ki of 4.9 µM. This compound yielded an EC50 in assay [2] of 5 µM.
The compound `CNC(=O)C1CN(S(=O)(=O)c2ccc(-c3cccnc3OC)cc2)CCN1S(=O)(=O)c1ccc(-c2ccccc2)cc1` (centres undefined) yielded a Ki in assay [1] of 4 µM. In assay [2], this compound returned an EC50 of 1.4 µM.
In turn, `O=C(NO)C1CN(C(=O)c2ccc(-c3ccccc3)cc2)CCN1S(=O)(=O)c1ccc(-c2ccccc2)cc1` (centres undefined) returned an inhibition constant Ki in assay [1] of 10 µM. The compound further gave an EC50 in assay [2] above 25 µM.
Turning to `CNC(=O)C1CN(S(=O)(=O)c2ccc(-c3ccccc3)cc2)CCN1S(=O)(=O)c1cccc(-c2cccnc2OC)c1` (centres undefined), the Ki in assay [1] came out at 4 µM. For the same compound, a half-maximal effect in assay [2] (EC50) was put at 6 µM.
As for `O=C(NO)C1CN(S(=O)(=O)c2ccc(-c3ccccc3)cc2)CCN1S(=O)(=O)c1cccc(Br)c1` (centres undefined), the Ki in assay [1] was 1.4 µM. The same compound displayed an EC50 in assay [2] of 1.6 µM.
In assay [1], `COC(=O)C1CN(S(=O)(=O)c2ccc(-c3ccccc3)cc2)CCN1S(=O)(=O)c1ccc(-c2ccccc2)cc1` (centres undefined) came in with a Ki of 2.5 µM. Also, in assay [2], the EC50 came out at 2.1 µM.
Turning to `O=C(NO)C1CN(C(=O)c2ccc3ccccc3c2)CCN1S(=O)(=O)c1ccc(Br)cc1` (centres undefined), in assay [1], the Ki was 3.5 µM. Moreover, in assay [2], a half-maximal response (EC50) required 7 µM.
In assay [1], `O=C(NO)C1CN(C(=O)c2ccc(-c3ccccc3)cc2)CCN1S(=O)(=O)c1ccc(-c2ccsc2)cc1` (centres undefined) had a Ki of 11 µM. Besides, the EC50 in assay [2] was 6 µM.
Regarding `CNC(=O)C1CN(S(=O)(=O)c2ccc(I)cc2)CCN1S(=O)(=O)c1ccc(-c2ccccc2)cc1` (centres undefined), the Ki in assay [1] was 2.6 µM. This compound gave an EC50 in assay [2] of 9 µM.
As for `O=C(NO)C1CN(S(=O)(=O)c2ccc(Cc3ccccc3)cc2)CCN1S(=O)(=O)c1ccc(Br)cc1` (centres undefined), the Ki in assay [1] was above 25 µM. Moreover, in assay [2], the EC50 was above 25 µM.
In the case of `O=C(NO)C1CN(S(=O)(=O)c2ccc(-c3ccccc3)cc2)CCN1S(=O)(=O)c1cccc(-c2ccccc2)c1` (centres undefined), the Ki in assay [1] stood at 0.9 µM. In assay [2], this compound gave an EC50 of 7 µM.
The matching figures for `O=C(NO)C1CN(C(=O)c2ccc(I)cc2)CCN1S(=O)(=O)c1ccc(Br)cc1` (centres undefined): above 25 µM and above 25 µM.
`CNC(=O)C1CN(S(=O)(=O)c2ccc(-c3ccccc3)cc2)CCN1S(=O)(=O)c1cccc(-c2ccc(C(=O)c3ccccc3)cc2)c1` (centres undefined): the Ki in assay [1] amounted to 1.7 µM. This compound also came in with a concentration giving a half-maximal response (EC50) in assay [2] of 0.9 µM.
The matching figures for `O=C(NO)C1CN(Cc2ccc(-c3ccccc3)cc2)CCN1S(=O)(=O)c1ccc(Br)cc1` (centres undefined): 5 µM and 10 µM.
In the case of `O=C(NO)C1CN(C(=O)c2ccc(-c3ccccc3)cc2)CCN1S(=O)(=O)c1ccc(I)cc1` (centres undefined), the affinity in assay [1], expressed as Ki, was 4 µM. The EC50 in assay [2] is 3 µM.
In turn, `C#Cc1ccc(S(=O)(=O)N2CCN(C(=O)c3ccc(C(=O)c4ccccc4)cc3)CC2C(=O)NO)cc1` (centres undefined) registered a Ki in assay [1] above 25 µM. In assay [2], this compound displayed an EC50 of 6 µM.
`CNC(=O)C1CN(S(=O)(=O)c2cccc(Br)c2)CCN1S(=O)(=O)c1ccc(-c2ccccc2)cc1` (centres undefined) displayed a Ki in assay [1] of 1.4 µM. The EC50 in assay [2] was determined as 4.7 µM.
For `C#Cc1ccc(S(=O)(=O)N2CCNCC2C(=O)NO)cc1` (centres undefined), in that order: above 25 µM and above 25 µM.
In assay [1], `COC(=O)C1CN(Cc2ccc(-c3ccccc3)cc2)CCN1S(=O)(=O)c1ccc(Br)cc1` (centres undefined) registered a Ki of 4 µM. In assay [2], the EC50 is 1.4 µM.
`O=C(NO)C1CN(S(=O)(=O)c2ccc(/C=C/c3ccccc3)cc2)CCN1S(=O)(=O)c1ccc(-c2ccccc2)cc1` (centres undefined) gave a Ki in assay [1] of 1.1 µM. Besides, the EC50 in assay [2] was found to be 16 µM.
For `O=C(NO)C1CN(S(=O)(=O)c2ccc(-c3ccccc3)cc2)CCN1S(=O)(=O)c1ccc(-c2ccccc2)cc1` (centres undefined), in assay [1], the affinity corresponds to a Ki of 0.22 µM. In assay [2], the EC50 was determined as 7 µM.
Regarding `CNC(=O)C1CN(S(=O)(=O)c2ccc(-c3ccccc3)cc2)CCN1S(=O)(=O)c1cccc(/C=C/c2ccccc2)c1` (centres undefined), in assay [1], the affinity, expressed as Ki, was 1 µM. In assay [2], this compound yielded an EC50 of 5 µM.
